# Test results from PubChem BioAssay AID977622 (Broad Institute, 2014).
# Records with an inconclusive call do not appear. Calls of active or inactive are those of the source.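 How the source made its calls: active means Green signal of the normal strain falls at least twice as much as red signal of the resistant mutant, with overall culture growth loss under a set limit; inconclusive means no clear call, values can overlap the other calls; inactive means the rest.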
# Tests used:
# [1] = test system: E. coli WT ribosome GFP fluorescence, mixed culture, 24 h; experiment: wild-type E. coli growth inhibition versus h38 humanized strain – h38 mutant RFP, wild-type GFP, cherry-pick, dose response (AID 977622)
# [2] = test system: E. coli h38 humanized mutant ribosome RFP fluorescence, mixed culture, 24 h; experiment: as above; details: measured here: h38 humanized mutant RFP strain
# [3] = E. coli mixed culture, 24 h, measured here: total growth OD600
SMILES,"AC50 [1, 3] [µM]",AC50 [2] [µM],AC50 [1]
COc1ccccc1NC(=O)COC(=O)Cc1c[nH]c2ccccc12,> 100,> 100,–
Cc1ccc(C(=O)Nc2cccc3[nH]c(C(F)(F)F)nc23)cc1,> 100,> 100,–
COc1ccc2oc(C)c(C(=O)c3ccccc3)c2c1,48.5,> 100,> 100 µM (inactive)
O=S1(=O)N[C@H](Cc2ccccc2)COc2cccc(N3CCC[C@H]3CO)c21,–,> 100,> 100 µM (inactive)
O=C(O)CSc1nnc(-c2ccc(Cl)cc2Cl)n1-c1ccc(Br)cc1,> 100,> 100,> 100 µM (inactive)
N#Cc1cccc(-c2ccc3c(c2)[C@@H]2[C@@H](CCN2S(=O)(=O)c2cccc(F)c2)[C@H](CO)N3)c1,–,> 100,> 100 µM (inactive)
O=C(Nc1ccc(C(=O)c2ccccc2)cc1)c1ccccc1,–,> 100,–
NS(=O)(=O)c1cccc(NC(=O)CSc2nc3ccccc3n2-c2ccccc2)c1,36,> 100,> 100 µM (inactive)
Cc1cccc(Nc2nc(-c3ccc(F)cc3)cs2)n1,> 100,> 100,> 100 µM (inactive)
CCCc1c(C(=O)Nc2ccc(OC)cc2)cnn1-c1ccccc1,–,9.68,> 100 µM (inactive)
O=C(Nc1ccncc1)c1ccc(S(=O)(=O)Nc2ccccc2)cc1,–,> 100,> 100 µM (inactive)
O=C1OC[C@@H]2CCCN2C(=O)[C@@H](CC(=O)N(CCO)Cc2ccccc2)C/C=C\C[C@H]1Cc1ccc(F)cc1,> 100,> 100,–
Cc1ccccc1CSCC(=O)Nc1ccccc1F,–,> 100,–
COc1cccc(NC(=O)C2CCC(CNS(=O)(=O)c3cccs3)CC2)c1 (configuration not stated),–,> 100,> 100 µM (inactive)
NC(=O)c1cccnc1Oc1ccc(Cl)cc1Cl,–,> 100,> 100 µM (inactive)
Cc1ccccc1-c1cc(C(=O)NCc2cccs2)n(CC2CC(c3cccnc3)=NO2)n1 (configuration not stated),–,> 100,> 100 µM (inactive)
CCC1(CC)NC(=O)N(CC(=O)N2N=C(c3ccc(Cl)cc3)CC2c2ccco2)C1=O (configuration not stated),> 100,> 100,–
C=CCn1c(C)cc(C(=O)CSc2nnc(C3CC3)n2C2CC2)c1C,> 100,> 100,–
COc1ccc(OC)c(S(=O)(=O)Nc2cccc3ccc(O)cc23)c1,> 100,> 100,> 100 µM (inactive)
O=C(c1cccs1)c1c[nH]cc1-c1ccccc1,> 100,> 100,–
COc1cccc(-c2ccc(NC(=O)C3CCCN(Cc4cnn(C(C)C)c4)C3)cc2)c1 (configuration not stated),–,> 100,–
C[C@H]1CN([C@@H](C)CO)C(=O)c2c(c3ccccc3n2C)-c2ccccc2CO[C@@H]1CN(C)Cc1ccncc1,–,> 100,–
CCn1cc(Br)c(C(=O)Nc2ccc(C(=O)OC(C)C)cc2)n1,–,> 100,> 100 µM (inactive)
CCc1cc2cc(OC)ccc2nc1SCC(=O)Nc1cc(OC)c(OC)cc1C(=O)O,36.3,> 100,> 100 µM (inactive)
COc1ccc(NC(=O)CCS(=O)(=O)c2ccccc2Cl)cc1S(=O)(=O)Nc1ccc(Cl)cc1,> 100,> 100,> 100 µM (inactive)
CN(C)S(=O)(=O)N1CCN(c2ccccc2Cl)CC1,> 100,> 100,–
Cc1nc([N+](=O)[O-])c(Br)n1CC(=O)c1ccc(F)cc1,–,4.58,> 100 µM (inactive)

SMILES,"AC50 [1, 3] [µM]",AC50 [2] [µM],AC50 [1]
CC(C)=C(c1ccc(Cl)cc1)c1c(N)ncnc1N,–,> 100,–
COC(=O)c1c(-c2ccc(OC)cc2)sc2cc(OC)c(OC)cc12,45.8,> 100,> 100 µM (inactive)
CS(=O)(=O)c1ccc(Cl)c(NC(=O)CSc2nncn2-c2ccccc2)c1,–,> 100,> 100 µM (inactive)
O=C(Nc1cccc(Cl)c1)c1ccc(S(=O)(=O)NCC2CCCO2)cc1 (configuration not stated),52.5,43.4,> 100 µM (inactive)
COc1ccc(OC)c(C(=O)COC(=O)c2ccc([N+](=O)[O-])o2)c1,> 100,> 100,> 100 µM (inactive)
O=S(=O)(Nc1ccc(-c2cnco2)cc1)c1ccccc1,–,> 100,> 100 µM (inactive)
O=S(=O)(NOCc1ccc(Cl)cc1)c1ccc(Cl)cc1,–,52,–
COc1ccc(NC(=O)Nc2cccc3c2O[C@@H](CN(C)S(=O)(=O)c2ccc(Cl)cc2)[C@H](C)CN([C@H](C)CO)C3=O)cc1,–,> 100,> 100 µM (inactive)
O=C(NCc1ccccc1)C1C(=O)Nc2ccccc2C(=O)N1c1ccc2c(c1)OCCO2 (configuration not stated),–,> 100,> 100 µM (inactive)
O=C(c1cccc2ccccc12)C1CCCN(C(=O)CCc2cnccn2)C1 (configuration not stated),> 100,> 100,–
Nc1c(Cl)cc(C2=NCCn3nc4ccccc4c32)cc1Cl,41.6,50.5,> 100 µM (inactive)
CC(C)(C)S(=O)(=O)Cc1nc(-c2ccc(Cl)c(Cl)c2)cs1,> 100,> 100,> 100 µM (inactive)
CC(=O)Nc1cccc(OCc2ccc([N+](=O)[O-])cc2)c1,–,> 100,–
COc1ccc(CN2C(=O)NC(C)(c3ccc(C)cc3)C2=O)cc1F (configuration not stated),–,> 100,> 100 µM (inactive)
CN(C)CCCN(C(=O)CCOc1ccccc1)c1nc2c(F)cccc2s1,–,> 100,–
CCc1cccc(NC(=O)CN(C)S(=O)(=O)c2cccc3cccnc23)c1,–,> 100,> 100 µM (inactive)
Cc1ccccc1S(=O)(=O)N1C[C@H]2CON(C)[C@H]2C[C@H]1c1cccc(-c2ccc(C#N)cc2)c1,–,> 100,–
C[C@@H]1CCCCO[C@H](CN(C)CC2CC2)[C@H](C)CN([C@@H](C)CO)C(=O)c2cc(NC(=O)Nc3cccc4ccccc34)ccc2O1,32.4,43.2,> 52 µM (inactive)
C=C1c2cc3c(cc2NC(=S)N1Cc1ccccc1)OCO3,> 100,> 100,–
CCc1cc2c(nc1CC)CCCN2Cc1ccc(Br)cc1,–,> 100,> 100 µM (inactive)
Cc1cc(SCC(=O)c2cccs2)n2nc(C)c(-c3ccc(Cl)cc3)c2n1,–,> 100,–
Cc1onc(-c2ccccc2Cl)c1C(=O)N1CCN(Cc2ccc3c(c2)OCO3)CC1,> 100,> 100,–
CC(C)n1nnnc1C1c2ccccc2C(=O)N1CCOc1ccccc1 (configuration not stated),> 100,3.86,–
CN1C(=O)c2cc(NC(=O)c3cccc(F)c3)ccc2OC[C@H]2O[C@@H](CC(=O)NCC3CCCCC3)CC[C@@H]21,–,> 100,–
CCOc1ccc(C(C)=O)cc1CN1C(=O)NC2(CCCCCCC2)C1=O,–,> 100,–
CN(C)c1ccc(-c2nnn(Cc3ccccc3Br)n2)cc1,–,> 100,> 100 µM (inactive)
